The target in assay [1] is T1, human TLR4 (Homo sapiens, UniProt O00206+Q9Y6Y9). The assay is described as follows: SEAP assay, agonist dose response in human TLR4 HEK-Blue reporter cells. Type of assay: cell-based. Set-up: host or cells: HEK-Blue (HEK293-derived) reporter cells. The note with it: for agonist profile / EC50: human TLR4 HEK-Blue reporter cells; for EC50: read-out: EC50 for stimulation. Here is the method:
(§1) Human and mouse HEK-Blue reporter cells express human or mouse CD14, MD2, and TLR4 and secreted embryonic alkaline phosphatase (SEAP) under control of a promoter with binding sites for NFκB and AP-1 transcription factors (InvivoGen cat. nos. hkb-htlr4 and hkb-mtlr4). Cells were cultured as directed by the supplier, with the exception that Glutamax (ThermoFisher cat. no. 10569010) was used in place of L-glutamine, and TrypLE Express (ThermoFisher cat. no. 12605010) was used to release adherent cells for each passage. BALB/c mouse RAW264.7 and human THP-1 cells (ATCC® cat. nos. TIB-71 and TIB-202) were cultured in DMEM (4.5 g/L D-Glucose with 2 mM L-glutamine, 1 mM sodium pyruvate, 100 U/ml penicillin and 100 μg/ml streptomycin) supplemented with 10% heat-inactivated FBS. THP-1 cells were exposed to phorbol-12-myristate-13-acetate (PMA, InvivoGen cat no. tlrl-pma), 5 ng/ml, for 48 h prior to treatment with TLR4 agonists. Bone marrow-derived dendritic cells (BMDCs) were generated using C57BL/6 mouse femurs following the exact method published by Lutz et al. ([29]) except that 5 rather than 20 ng/ml recombinant GM-CSF was used to differentiate the DC. Human peripheral blood […] (PBMCs) were prepared from venous blood of healthy volunteers that had been collected using sodium citrate as anti-coagulant, 20 ml of which was mixed with 15 ml calcium- and magnesium-free Hank’s Balanced Saline Solution (HBSS) and then laid over 6 ml Histopaque®-1077 (1.077 g/ml, Sigma-Aldrich cat no. 10771) for density gradient centrifugation. The buffy coat layer was collected by pipette, washed once in HBSS, once in serum-free RPMI-1640, and then the PBMCs were resuspended in RPMI-1640 supplemented with 100 U/ml penicillin, 100 µg/ml streptomycin, 1 mM Na-Pyruvate, 2 mM L-glutamine, 50 μM βME and 10% heat-inactivated, male AB human serum for culture.
(§2) SEAP assays were performed to evaluate the extent to which TLR4 signaling was activated in HEK-Blue reporter cells expressing mouse or human receptors (CD14, MD2 and TLR4). Reporter cells were harvested when 70–80% confluent and plated in 96-well, flat-bottom microtiter plates either 1 h, one day or two days (5 × 10^4, 4 × 10^4 or 2 × 10^4 cells/well, respectively) before addition of TLR4 agonists for 18–24 h. Culture supernatants were transferred to U-bottom microtiter plates, centrifuged and transferred again to microtiter plates to ensure reporter cells were not present. The culture supernatants were added to QUANTI-BLUE substrate following instructions provided by the manufacturer (InvivoGen cat. nos. rep-qbl or rep-qbs) and incubated at 37°C in a tissue culture incubator. At successive intervals beginning 10 min after mixing the supernatants and substrate, the plates were placed in an Emax plate reader (Molecular Devices LLC) and optical density was measured at visible light wavelength […] (OD650). The shortest incubations at which dose response curve fits produced maximal R^2 ‘goodness of fit’ values, as determined by GraphPad Prism software, were used for analysis.
(§3) Pharmacological profiles of the TLR4 reagents were generated by performing dose response curves in one of four formats. 1) Agonist potency and efficacy (EC50 and height of dose plateau, respectively) were measured by diluting TLR4 reagents successively in complete culture medium [DMEM or RPMI supplemented with fetal bovine serum (FBS) or RPMI supplemented with human serum, depending on cell-type]. Half-log step dilutions were performed in 96-well, U-bottom microtiter plates using a multichannel pipette to transfer and mix the suspensions, with fresh tips used for each dilution step. One-tenth (20 μl) volumes from wells of the dilution plate were then transferred to wells containing cells that had been plated in nine-tenth volumes (180 μl) of culture medium. […]

Assay [2] has as its target T1, human TLR4. The assay is described as follows: Inhibition curves (IC50 format): antagonist diluted in a fixed concentration of reference agonist, human TLR4 HEK-Blue SEAP. The note with it: for inhibition of PHAD stimulation: fixed PHAD 1 μM, 22 h. Type of assay: cell-based. Further details: host or cells: HEK-Blue (HEK293-derived) reporter cells. As to the method:
as §2
(§4) Pharmacological profiles of the TLR4 reagents were generated by performing dose response curves in one of four formats. 1) Agonist potency and efficacy (EC50 and height of dose plateau, respectively) were measured by diluting TLR4 reagents successively in complete culture medium [DMEM or RPMI supplemented with fetal bovine serum (FBS) or RPMI supplemented with human serum, depending on cell-type]. Half-log step dilutions were performed in 96-well, U-bottom microtiter plates using a multichannel pipette to transfer and mix the suspensions, with fresh tips used for each dilution step. One-tenth (20 μl) volumes from wells of the dilution plate were then transferred to wells containing cells that had been plated in nine-tenth volumes (180 μl) of culture medium. 2) Mixed agonist–antagonist potency and efficacy were measured by mixing a TLR4 agonist with a candidate antagonist at a fixed ratio and then performing half-log step dilutions before treating HEK reporter cells. Analysis of values obtained from SEAP assays of culture supernatants was then performed as described for preparations containing agonist alone, above. 3) Competitive vs allosteric or non-competitive antagonist type was evaluated by diluting a reference agonist within a fixed concentration of a candidate inhibitor in half-log steps, treating HEK reporter cells, performing SEAP assays and then analyzing the data as described for agonist assays, above. Competitive antagonists are characterized by values that reach the same dose plateau as for a reference, full agonist, while shifting potency to higher EC50 values. […] 4) Inhibitory potency (IC50) was measured by diluting antagonists within a fixed concentration of a reference agonist, treating HEK reporter cells and performing SEAP assays as described.

Assay [3] concerns the target T1, human TLR4. Nature of the assay: Mixed agonist-antagonist dose curves at fixed ratio, human TLR4 HEK-Blue SEAP. Further details: host or cells: HEK-Blue (HEK293-derived) reporter cells. Type of assay: cell-based. Here is the method:
as §2, §4

Assay [4] deals with T1, human TLR4. Nature of the assay: Competitive vs non-competitive antagonist type: agonist diluted in a fixed concentration of inhibitor, human TLR4 HEK-Blue SEAP. Format: cell-based. Set-up: host or cells: HEK-Blue (HEK293-derived) reporter cells. The note with it: fixed ML3 3 μM, ML4A 3 μM or Lipid IVa 0.1 μM; agonist PHAD or 3D-6A-PHAD diluted from 10 μM. Here is the method: as §2
Pharmacological profiles of the TLR4 reagents were generated by performing dose response curves in one of four formats. 1) Agonist potency and efficacy (EC50 and height of dose plateau, respectively) were measured by diluting TLR4 reagents successively in complete culture medium [DMEM or RPMI supplemented with fetal bovine serum (FBS) or RPMI supplemented with human serum, depending on cell-type]. […] 2) Mixed agonist–antagonist potency and efficacy were measured by mixing a TLR4 agonist with a candidate antagonist at a fixed ratio and then performing half-log step dilutions before treating HEK reporter cells. […] 4) Inhibitory potency (IC50) was measured by diluting antagonists within a fixed concentration of a reference agonist, treating HEK reporter cells and performing SEAP assays as described.

Assay [5] concerns the target T2, mouse TLR4 (Mus musculus, UniProt Q9JHF9+Q9QUK6).
T2 sequence (Q9QUK6 26-835): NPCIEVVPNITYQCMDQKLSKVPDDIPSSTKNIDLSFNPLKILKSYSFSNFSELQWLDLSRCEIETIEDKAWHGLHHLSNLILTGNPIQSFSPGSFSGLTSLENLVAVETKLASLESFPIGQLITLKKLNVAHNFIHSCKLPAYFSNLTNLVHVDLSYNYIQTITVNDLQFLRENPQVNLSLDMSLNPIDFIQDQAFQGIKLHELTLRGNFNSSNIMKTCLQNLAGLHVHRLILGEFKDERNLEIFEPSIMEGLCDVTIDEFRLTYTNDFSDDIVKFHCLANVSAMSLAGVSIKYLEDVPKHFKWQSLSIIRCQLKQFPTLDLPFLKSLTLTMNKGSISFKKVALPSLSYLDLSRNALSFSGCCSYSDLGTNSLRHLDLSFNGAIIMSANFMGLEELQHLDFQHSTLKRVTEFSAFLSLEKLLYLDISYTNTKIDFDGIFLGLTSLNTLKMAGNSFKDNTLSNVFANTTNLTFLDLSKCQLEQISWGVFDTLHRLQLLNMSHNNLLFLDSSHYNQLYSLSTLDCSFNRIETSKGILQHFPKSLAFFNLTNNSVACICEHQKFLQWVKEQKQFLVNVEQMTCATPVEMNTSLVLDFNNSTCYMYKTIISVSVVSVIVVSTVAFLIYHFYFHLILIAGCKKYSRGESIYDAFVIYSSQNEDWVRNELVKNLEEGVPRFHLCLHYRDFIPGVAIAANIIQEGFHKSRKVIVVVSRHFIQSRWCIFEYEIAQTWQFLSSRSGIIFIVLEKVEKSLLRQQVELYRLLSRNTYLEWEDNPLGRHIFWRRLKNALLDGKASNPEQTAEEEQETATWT
T2 sequence (Q9JHF9 19-160): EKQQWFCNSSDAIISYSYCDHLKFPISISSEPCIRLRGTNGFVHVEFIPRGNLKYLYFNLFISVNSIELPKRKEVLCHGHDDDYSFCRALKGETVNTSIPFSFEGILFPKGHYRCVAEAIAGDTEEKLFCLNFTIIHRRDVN
Set-up: method as in PMID 1918061. The note with it: cited from earlier work.

Assay [6] concerns the target T1, human TLR4. Set-up: method as in PMID 1918061. The note with it: cited from earlier work.
Assay [7] deals with T2, mouse TLR4. Nature of the assay: SEAP assay, agonist dose response in mouse TLR4 HEK-Blue reporter cells. Format: cell-based. Further details: host or cells: HEK-Blue (HEK293-derived) reporter cells. The note with it: for agonist profile: mouse TLR4 HEK-Blue reporter cells. As to the method:
as §1, §2, §3

The values that follow come from PMC7596181 (Frontiers in Immunology, 2020).

T1 sequence (O00206 24-839): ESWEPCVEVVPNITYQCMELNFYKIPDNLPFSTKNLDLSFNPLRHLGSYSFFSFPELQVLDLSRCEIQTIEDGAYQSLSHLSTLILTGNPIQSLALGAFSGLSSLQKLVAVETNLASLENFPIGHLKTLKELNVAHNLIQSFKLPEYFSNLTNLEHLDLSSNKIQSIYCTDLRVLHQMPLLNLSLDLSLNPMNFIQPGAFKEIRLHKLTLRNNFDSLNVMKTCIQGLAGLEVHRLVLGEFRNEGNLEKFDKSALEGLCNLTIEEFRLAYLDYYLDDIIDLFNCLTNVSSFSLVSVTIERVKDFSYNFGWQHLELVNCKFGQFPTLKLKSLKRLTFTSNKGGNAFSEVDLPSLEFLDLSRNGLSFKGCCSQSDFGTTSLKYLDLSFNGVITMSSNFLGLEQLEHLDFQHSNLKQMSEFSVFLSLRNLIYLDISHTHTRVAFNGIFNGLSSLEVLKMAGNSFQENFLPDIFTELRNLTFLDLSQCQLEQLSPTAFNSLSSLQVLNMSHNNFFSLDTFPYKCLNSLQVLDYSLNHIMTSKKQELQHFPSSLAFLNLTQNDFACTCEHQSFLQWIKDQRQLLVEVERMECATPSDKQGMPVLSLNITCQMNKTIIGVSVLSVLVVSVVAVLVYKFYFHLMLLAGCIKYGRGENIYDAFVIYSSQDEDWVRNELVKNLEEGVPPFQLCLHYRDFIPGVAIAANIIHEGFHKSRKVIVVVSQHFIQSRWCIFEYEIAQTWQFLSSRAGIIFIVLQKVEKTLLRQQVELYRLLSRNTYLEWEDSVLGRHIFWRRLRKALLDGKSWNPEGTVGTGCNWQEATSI
T1 sequence (Q9Y6Y9 17-160 limits assumed): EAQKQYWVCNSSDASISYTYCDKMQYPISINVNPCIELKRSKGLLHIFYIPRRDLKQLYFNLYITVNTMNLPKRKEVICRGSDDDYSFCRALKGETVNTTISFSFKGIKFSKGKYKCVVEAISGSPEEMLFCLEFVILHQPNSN

As for `CCCCCCCCCCCCCC(=O)OC(CCCCCCCCCCC)CC(=O)OC1C(NC(=O)CC(CCCCCCCCCCC)OC(=O)CCCCCCCCCCC)C(OCC2OC(O)C(NC(=O)CC(O)CCCCCCCCCCC)C(O)C2O)OC(CO)C1OP(=O)(O)O` (stereo not shown) [ML5A], the “agonist profile” value at human TLR4 [1] is reported as “weaker agonists of human TLR4 than of mouse TLR4”. Also, the “inhibition of PHAD stimulation” value at human TLR4 [2] is “only ML3 and ML4A showed inhibitory potential”.
As a reminder, the IC50 is the point on the concentration scale where inhibition reaches its midpoint. Turning to `CCCCCCCCCCC[C@@H](O)CC(=O)N[C@H]1[C@H](OC[C@H]2O[C@H](OP(=O)(O)O)[C@H](NC(=O)C[C@H](O)CCCCCCCCCCC)[C@@H](OC(=O)C[C@H](O)CCCCCCCCCCC)[C@@H]2O)O[C@H](CO)[C@@H](OP(=O)(O)O)[C@@H]1OC(=O)C[C@H](O)CCCCCCCCCCC` [Lipid IVa, reference compound], the “effect on agonist dose curve in fixed-ratio mixture” value at human TLR4 [3] (mixed with PHAD at 1:60 or 1:20 antagonist:agonist) is “clearly flatted”; on human TLR4 [3] (mixed with PHAD at 1:180 antagonist:agonist), “trending to a flattened curve”. For the same compound, at human TLR4 [4], the “antagonist type” value is reported as “competitive antagonist curve”. Besides, at mouse TLR4 [5], the “activity on mouse TLR4” value was “agonist of mouse TLR4”. Besides, the “activity on human TLR4” value on human TLR4 [6] is reported as “competitive antagonist of human TLR4”. At human TLR4 [2] (fixed 3D-6A-PHAD 300 nM), the “inhibition of 3D-6A-PHAD stimulation” value was “functioned as inhibitors”. Further, on human TLR4 [2] (fixed PHAD 30 nM, 95% CI given), the IC50 is 0.19 nM.
`CCCCCCCCCCCCCCCC(=O)OC(CCCCCCCCCCC)CC(=O)NC1C(O)OC(COC2OC(CO)C(OP(=O)(O)O)C(OC(=O)CC(CCCCCCCCCCC)OC(=O)CCCCCCCCCCCCC)C2NC(=O)CC(CCCCCCCCCCC)OC(=O)CCCCCCCCCCC)C(O)C1O` (stereo not shown) [ML6]: at human TLR4 [1], the “agonist profile” value is listed as “weaker agonists of human TLR4 than of mouse TLR4”. In addition, the “inhibition of PHAD stimulation” value at human TLR4 [2] was “only ML3 and ML4A showed inhibitory potential”.
Broadly, the EC50 is the concentration needed to bring the measured effect to its halfway point. As to `CCCCCCCCCCCCCC(=O)OC(CCCCCCCCCCC)CC(=O)NC1C(O)OC(COC2OC(CO)C(OP(=O)(O)O)C(OC(=O)CC(CCCCCCCCCCC)OC(=O)CCCCCCCCCCCCC)C2NC(=O)CC(CCCCCCCCCCC)OC(=O)CCCCCCCCCCCCC)C(O)C1O` (stereo not shown) [3D-6A-PHAD, reference compound], the EC50 on human TLR4 [1] is 300 nM.
For the compound `CCCCCCCCCCCCCC(=O)O[C@H](CCCCCCCCCCC)CC(=O)N[C@H]1[C@H](OC[C@H]2OC(O)[C@H](NC(=O)C[C@H](O)CCCCCCCCCCC)[C@@H](OC(=O)C[C@H](O)CCCCCCCCCCC)[C@@H]2O)O[C@H](CO)[C@@H](OP(=O)(O)O)[C@@H]1OC(=O)C[C@@H](CCCCCCCCCCC)OC(=O)CCCCCCCCCCCCC` (stereo partly shown) [PHAD, phosphorylated hexa-acyl disaccharide, reference compound], the “agonist profile” value on mouse TLR4 [7] was “weak yet full agonist of both mouse and human TLR4”. On human TLR4 [1], the “agonist profile” value was “weak yet full agonist of both mouse and human TLR4”; the EC50 was found to be 30 nM.
On to `CCCCCCCCCCCCCC(=O)O[C@H](CCCCCCCCCCC)CC(=O)O[C@@H]1[C@@H](NC(=O)C[C@@H](CCCCCCCCCCC)OC(=O)CCCCCCCCCCC)[C@H](OC[C@H]2O[C@H](OP(=O)(O)O)[C@H](NC(=O)C[C@H](O)CCCCCCCCCCC)[C@@H](OC(=O)C[C@H](O)CCCCCCCCCCC)[C@@H]2O)O[C@H](CO)[C@H]1OP(=O)(O)O` [Lipid A, reference compound], for which the “agonist profile” value on mouse TLR4 [7] and at human TLR4 [1] was “most potent of the agonists tested” in each case. Besides, the “ED50 (95% CI)” value on mouse TLR4 [7] (mouse Tlr4 reporter cells, stimulatory curve fit, Figure 3C) is listed as 0.7 (0.5-0.9) ng/mL; at human TLR4 [1] (human TLR4 reporter cells, stimulatory curve fit, Figure 3C) it was 1.0 (0.8-1.1) ng/mL.
